Measured values reported in patent publication US9133187B2, “Serine/threonine kinase inhibitors” (ARRAY BIOPHARMA INC., priority 2011, dated 2015).

Legend:
[1] = system: PMA-stimulated P90RSK(Ser380) phosphorylation in HepG2 cells; experiment: Cellular P90RSK(Ser380) Phosphorylation Assay; format: cell-based; conditions: Homo sapiens, 1.5 h compound incubation, PMA stimulation, pP90RSK(Ser380) normalized to GAPDH, read-out: Cell Assay IC50
Protocol: Inhibition of PMA-stimulated P90RSK(Ser380) phosphorylation was determined by the following in vitro cellular mechanistic assay, which comprises incubating cells with a compound for 1.5 hours and quantifying fluorescent pP90RSK(Ser380) signal on fixed cells and normalizing to GAPDH signal.
Materials and Methods: HepG2 cells were obtained from ATCC and grown in DMEM supplemented with 10% fetal bovine serum. Cells were plated in 96-well plates at 35,000 cells/well and allowed to attach overnight at 37° C./5% CO2. Diluted compounds were then added at a final concentration of 0.5% DMSO. After 1.5 hour compound incubation, cells were stimulated with the addition of PMA (phorbol 12-myristate 13-acetate) at a final concentration of 100 ng/mL; the PMA stimulation was a 30-minute incubation at 37° C./5% CO2. After the 30-minute PMA stimulation, cells were washed with PBS and fixed in 3.7% formaldehyde in PBS at room temperature for 15-20 minutes. This was followed by another wash in PBS and then permeabilization in 100% MeOH at room temperature for 10-15 minutes. Following the permeabilization incubation, cells were washed in PBS/0.05% Tween-20, followed by a block in Odyssey blocking buffer (LI-COR Biosciences) for at least 1 hour. Antibodies to phosphorylated P90RSK(Ser380) (Cell Signaling #9335, rabbit monoclonal) and GAPDH (Fitzgerald 10R-G109a, mouse monoclonal) were added to the cells and incubated overnight at 4° C. pP90RSK(Ser380) antibody was used at a 1:250 dilution; GAPDH was used at a 1:10,000 dilution. After washing with PBS/0.05% Tween-20, the cells were incubated with fluorescently-labeled secondary antibodies (Anti-rabbit-Alexa Flour680, Invitrogen Cat#A21109; Anti-mouse-IRDye800CW, Rockland Inc. Cat#610-131-121) for 1 hour. Both secondary antibodies were used at a 1:1000 dilution. Cells were then washed and analyzed for fluorescence at both wavelengths using the Odyssey Infrared Imaging System (LI-COR Biosciences). Phosphorylated P90RSK(Ser380) signal was normalized to GAPDH signal. Representative date is in TABLE III (infra).

[2] = target: human ERK-2 (Mitogen Activated Kinase 1) (Homo sapiens (Human), UniProt P28482); experiment: ERK-2 Enzymatic Assay; format: biochemical; conditions: 5 nM ERK-2, 25 μM ATP, Omnia peptide S/T17; read-out: ERK Inhibition IC50
Sequence of human ERK-2 (Mitogen Activated Kinase 1) (P28482 8-360): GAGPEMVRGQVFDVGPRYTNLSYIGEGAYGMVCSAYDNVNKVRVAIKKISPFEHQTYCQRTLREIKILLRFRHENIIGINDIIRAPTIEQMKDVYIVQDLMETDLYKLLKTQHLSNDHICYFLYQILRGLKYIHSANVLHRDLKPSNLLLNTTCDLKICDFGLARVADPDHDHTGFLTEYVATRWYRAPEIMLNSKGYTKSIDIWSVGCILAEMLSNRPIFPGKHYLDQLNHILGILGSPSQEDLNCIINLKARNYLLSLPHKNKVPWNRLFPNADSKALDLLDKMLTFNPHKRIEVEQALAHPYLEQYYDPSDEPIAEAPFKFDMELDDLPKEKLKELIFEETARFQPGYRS
Protocol: Compounds were tested in an enzymatic assay using human ERK-2 (Mitogen Activated Kinase 1), recombinantly expressed as an n-terminal 6-His fusion protein in E. coli and corresponding to aa 8-360. The substrate used was the fluorescent Omnia peptide S/T17 (Invitrogen of Carlsbad, Calif.; Cat. KNZ1171C). Test compounds were diluted in DMSO in 3-fold serial dilutions at 100× final concentrations. […] The assay was run at ambient temperature in a white 384-well polypropylene plate (Nunc, Inc of Naperville, Ill.; Cat. 267462) collecting data every 50 seconds for approximately 30 minutes on an Envision plate reader (PerkinElmer, Inc. of Waltham, Mass.); Excitation 340 nm/Emission 495 nm. The data collected from each well was fit to a straight line and the resulting rates were used to calculate percent of control. Percent of control was plotted against compound concentration and IC50 values were determined using a four-parameter fit.

SMILES	IC50 [2] [nM]	IC50 [1] [nM]
O=C(N[C@@H](c1ccc(Cl)c(F)c1)[C@@H]1CNCCO1)N1CCc2cnc(NC3CCOCC3)nc2C1 (mixture of isomers) [Compound I-144, N—((R)-(4-chloro-3-fluorophenyl)((R)-morpholin-2-yl)methyl)-2-(tetrahydro-2H-pyran-4-ylamino)-5,6-dihydropyrido[3,4-d]pyrimidine-7(8H)-carboxamide and N—((S)-(4-chloro-3-fluorophenyl)((S)-morpholin-2-yl)methyl)-2-(tetrahydro-2H-pyran-4-ylamino)-5,6-dihydropyrido[3,4-d]pyrimidine-7(8H)-carboxamide mixture]	2.3	91.3
Cn1ccc(C(NC(=O)N2CCc3cnc(NC4CCOCC4)nc3C2)c2ccc(Cl)c(F)c2)n1 (centres unmarked) [Compound I-3, N-((4-chloro-3-fluorophenyl)(1-methyl-1H-pyrazol-3-yl)methyl)-2-(tetrahydro-2H-pyran-4-ylamino)-5,6-dihydropyrido[3,4-d]pyrimidine-7(8H)-carboxamide]	3.8	101
Cn1cc(C(NC(=O)N2CCc3cnc(NC4CCOCC4)nc3C2)c2ccc(Cl)c(F)c2)cn1 (centres unmarked) [Compound I-5, N-((4-chloro-3-fluorophenyl)(1-methyl-1H-pyrazol-4-yl)methyl)-2-(tetrahydro-2H-pyran-4-ylamino)-5,6-dihydropyrido[3,4-d]pyrimidine-7(8H)-carboxamide]	1.4	47.3
O=C(NC(c1cn[nH]c1)c1ccc(Cl)c(F)c1)N1CCc2cnc(NC3CCOCC3)nc2C1 (centres unmarked) [Compound I-7, N-((4-chloro-3-fluorophenyl)(1H-pyrazol-4-yl)methyl)-2-(tetrahydro-2H-pyran-4-ylamino)-5,6-dihydropyrido[3,4-d]pyrimidine-7(8H)-carboxamide]	1.5	43.5
O=C(NC(c1ccc(Cl)c(F)c1)c1nnco1)N1CCc2cnc(NC3CCOCC3)nc2C1 (centres unmarked) [Compound I-9, N-((4-chloro-3-fluorophenyl)(1,3,4-oxadiazol-2-yl)methyl)-2-(tetrahydro-2H-pyran-4-ylamino)-5,6-dihydropyrido[3,4-d]pyrimidine-7(8H)-carboxamide]	2.4	71.7
O=C(N[C@@H](c1ccc(Cl)c(F)c1)c1ccno1)N1CCc2cnc(NC3CCOCC3)nc2C1 [Compound I-12, (S)—N-((4-chloro-3-fluorophenyl)(isoxazol-5-yl)methyl)-2-(tetrahydro-2H-pyran-4-ylamino)-5,6-dihydropyrido[3,4-d]pyrimidine-7(8H)-carboxamide]	4	235
CNC[C@@H](CC(=O)N1CCc2cnc(NC(C)C)nc2C1)c1ccc(Cl)c(F)c1 [Compound I-17, (S)-3-(4-Chloro-3-fluoro-phenyl)-1-(2-isopropylamino-5,8-dihydro-6H-pyrido[3,4-d]pyrimidin-7-yl)-4-methylamino-butan-1-one]	3.2	281
C[C@@H](CO)Nc1ncc2c(n1)CN(C(=O)N[C@H](C)c1ccc(Cl)c(F)c1)CC2 [Compound I-21, N—((R)-1-(4-chloro-3-fluorophenyl)ethyl)-2-((S)-1-hydroxypropan-2-ylamino)-5,6-dihydropyrido[3,4-d]pyrimidine-7(8H)-carboxamide]	1.6	55.2
C[C@@H](CO)Nc1ncc2c(n1)CN(C(=O)N[C@@H](c1ccc(Cl)c(Cl)c1)C(F)(F)F)CC2 [Compound I-23, N—((S)-1-(3,4-dichlorophenyl)-2,2,2-trifluoroethyl)-2-((S)-1-hydroxypropan-2-ylamino)-5,6-dihydropyrido[3,4-d]pyrimidine-7(8H)-carboxamide]	3.2	493
CCOc1cc(Nc2ncc3c(n2)CN(C(=O)N[C@H](C)c2ccc(Cl)c(Cl)c2)CC3)ccn1 [Compound I-35, (R)—N-(1-(3,4-dichlorophenyl)ethyl)-2-(2-ethoxypyridin-4-ylamino)-5,6-dihydropyrido[3,4-d]pyrimidine-7(8H)-carboxamide]	5.6	91.3
CC[C@@H](NC(=O)N1CCc2cnc(N[C@H]3CC[C@H](O)C3)nc2C1)c1ccc(C(F)(F)F)c(F)c1 [Compound I-37, N—((R)-1-(3-fluoro-4-(trifluoromethyl)phenyl)propyl)-2-((1S,3S)-3-hydroxycyclopentylamino)-5,6-dihydropyrido[3,4-d]pyrimidine-7(8H)-carboxamide]	4.8	93
C[C@@H](NC(=O)N1Cc2nc(NC3CCOCC3)ncc2C(F)(F)C1)c1ccc(Cl)c(Cl)c1 [Compound I-50, (R)—N-(1-(3,4-dichlorophenyl)ethyl)-5,5-difluoro-2-(tetrahydro-2H-pyran-4-ylamino)-5,6-dihydropyrido[3,4-d]pyrimidine-7(8H)-carboxamide]	1.6	28.3
O=C(N1CCc2cnc(NC3CCOCC3)nc2C1)N1CCCC1c1nccs1 (centres unmarked) [Compound I-139, (2-(tetrahydro-2H-pyran-4-ylamino)-5,6-dihydropyrido[3,4-d]pyrimidin-7(8H)-yl)(2-(thiazol-2-yl)pyrrolidin-1-yl)methanone]	264	–
O=C(N1CCc2cnc(NC3CCOCC3)nc2C1)N1CCNCC1c1ccccc1 (centres unmarked) [Compound I-141, (2-Phenylpiperazin-1-yl)(2-(tetrahydro-2H-pyran-4-ylamino)-5,6-dihydropyrido[3,4-d]pyrimidin-7(8H)-yl)methanone]	108	–
O=C(N[C@H](CO)c1ccc(F)c(Cl)c1)N1CCc2cnc(N[C@H](CO)Cc3ccccc3)nc2C1 [II-17, 2-((S)-1-Hydroxymethyl-2-phenyl-ethylamino)-5,8-dihydro-6H-pyrido[3,4-d]pyrimidine-7-carboxylic acid [(S)-1-(3-chloro-4-fluoro-phenyl)-2-hydroxy-ethyl]-amide]	–	1100
CC(C)OC[C@@H](NC(=O)N1CCc2cnc(N[C@H]3CC[C@H](O)C3)nc2C1)c1ccc(F)c(Cl)c1 [II-95, 2-((1S,3S)-3-Hydroxy-cyclopentylamino)-5,8-dihydro-6H-pyrido[3,4-d]pyrimidine-7-carboxylic acid [(S)-1-(3-chloro-4-fluoro-phenyl)-2-isopropoxy-ethyl]-amide]	–	551
CC(C)Nc1ncc2c(n1)CN(C(=O)N[C@@H](c1ccc(C(F)(F)F)c(F)c1)c1cccc(=O)[nH]1)CC2 [II-99, 2-Isopropylamino-5,8-dihydro-6H-pyrido[3,4-d]pyrimidine-7-carboxylic acid [(S)-(3-fluoro-4-trifluoromethyl-phenyl)-(6-oxo-1,6-dihydro-pyridin-2-yl)-methyl]-amide]	–	5600
CC1CC(Nc2ncc3c(n2)CN(C(=O)N[C@H](CO)c2ccc(Cl)c(F)c2)CC3)CCO1 (some centres unmarked) [II-366]	–	91

Continued, in another order:

IC50 [2] [nM]	SMILES	IC50 [1] [nM]
0.7	C[C@@H](CO)Nc1ncc2c(n1)CN(C(=O)NC1CNCC1c1ccc(C(F)(F)F)cc1)CC2 (mixture of isomers) [II-171, 2-(2-Hydroxy-1-methyl-ethylamino)-5,8-dihydro-6H-pyrido[3,4-d]pyrimidine-7-carboxylic acid [4-(4-trifluoromethyl-phenyl)-pyrrolidin-3-yl]-amide]	10000
2.4	O=C(NC(c1ccc(Cl)c(F)c1)c1nnco1)N1CCc2cnc(NC3CCOCC3)nc2C1 (stereo in doubt) [II-359, 2-(Tetrahydro-pyran-4-ylamino)-5,8-dihydro-6H-pyrido[3,4-d]pyrimidine-7-carboxylic acid [(R)-(4-chloro-3-fluoro-phenyl)-[1,3,4]oxadiazol-2-yl-methyl]-amide]	30
409	CC(C)Nc1ncc2c(n1)CN(C(=O)NC[C@H](c1ccc(C(F)(F)F)c(F)c1)N1CCCC1)CC2 [II-102, 2-Isopropylamino-5,8-dihydro-6H-pyrido[3,4-d]pyrimidine-7-carboxylic acid [(S)-2-(3-fluoro-4-trifluoromethyl-phenyl)-2-pyrrolidin-1-yl-ethyl]-amide]	–
